Columns and labels:
[1] = system: human AML cells of model CTG-2229; assay: AML PDX in vivo study, flow cytometry of blood, spleen, bone marrow; design: species or system NCG mice; conditions: 1 mg/kg PO/BID×28, all tissues
Description: Sub-lethally irradiated NCG mice were inoculated with 2×10^6 human AML cells of model CTG-2229. Mice were monitored post AML inoculation to assess human AML engraftment using huCD45/muCD45/huCD33/huCD3 antibodies and BD TruCount™ beads. When individual animals had ≥20% live huCD45 cells in the bone marrow, they were randomized to treatment cohorts. For the efficacy study, animals were administered (n=13/group) with vehicle control, HC-7366 at 1 mg/kg, 10 mg/kg or 30 mg/kg PO/BID×28, or Venetoclax at 100 mg/kg PO/QD×28. Terminal blood, spleen, and bone marrow samples were collected for flow cytometry (FIG. 87). Tolerability was assessed by body weight loss, lethality, and clinical signs of adverse treatment-related side effects. Body weights were measured twice weekly.

[2] = system: KG-1 (human AML cancer cells); assay: In vivo tumor growth inhibition, KG-1 xenograft; design: species or system NOD SCID mice; conditions: 1 and 3 mg/kg twice daily oral
Description: KG-1 (human AML cancer cells): Female 6-8 weeks old NOD SCID mice were inoculated subcutaneously on the right flank with KG1 tumor cells (5×10^6) in RPMI 1640 without serum for tumor development. The treatments were started when the mean tumor size reached approximately 194 mm^3 at Day 20 after cell inoculation and continued until end of study by twice daily oral gavage dosing of HC-7366 at listed doses (vehicle, 0.3 mg/kg HC-7366, 1 mg/kg HC-7366, 3 mg/kg HC-7366, 10 mg/kg HC-7366, or 30 mg/kg HC-7366, FIG. 17).
(§1) [formula] • 2.2.2 Tumor Measurements: The measurement of tumor size was conducted three times weekly with a caliper and recorded. The tumor volume (mm^3) was estimated using the formula: TV=a×b^2/2, where “a” and “b” is long and short diameters of a tumor, respectively. Tumor volume was calculated using the formula [tumor volume (mm^3)=π/6×length×width^2).
(§2) Regression was calculated using the formula=100×ΔT/T initial, if ΔT<0. Animals with 0 mm^3 tumor volume (no measurable tumor) for three consecutive measurements were considered as complete responders and animals with 50% tumor regressions were partial responders.

[3] = system: LNCaP (human prostate cancer cells); assay: In vivo tumor growth inhibition, LNCaP xenograft; design: species or system NOD SCID mice; conditions: ≥3 mg/kg twice daily oral
Description: LNCaP (human prostate cancer cells): Male 6-8 weeks old NOD SCID mice were inoculated subcutaneously on the right flank with LNCaP tumor cells (1×10^7) in 0.1 ml with Matrigel (1:1) in RPMI1640 with 10% fetal bovine serum (FBS) for tumor development. The treatments were started when the mean tumor size reached approximately 207 mm^3 at Day 14 post inoculation and continued until end of study by twice daily oral gavage dosing of HC-7366 at listed doses (vehicle, 0.3 mg/kg HC-7366, 1 mg/kg HC-7366, 3 mg/kg HC-7366, 10 mg/kg HC-7366, or 30 mg/kg HC-7366 twice daily, FIG. 14).
as §1, §2

[4] = system: GCN2 pathway (p-GCN2, ATF4) in HT1080 cells; assay: Western blot analysis of HT1080 cell lysates; format: cell-based, human; conditions: FIG. 5
Description: The HT1080 cells were harvested and counted and diluted to the desired density. 2 mL of cell suspension was added into each well of 6-well cell culture plate. The plates were transferred into 37° C., 5% CO2 incubator overnight. The cells were treated as described above. The media was aspirated, and cells were washed with ice cold phosphate buffered saline (PBS). Ice cold 1× radioimmunoprecipitation assay (RIPA) lysis buffer supplemented with protease and phosphatase inhibitors was added to the cell pellets, on ice. After 30 min on ice the cell lysates were centrifuged at 4° C., 12,000 rpm for 15 minutes and the supernatant collected. Protein concentration was determined using BCA kit. The cell lysates were mixed with 5× sodium dodecyl sulfate (SDS) loading buffer and denatured at 95° C. for 5 minutes. […] After the electrophoresis was completed, the separated protein was transferred to a nitrocellulose membrane using transblot system for 90 min, 300 mA, then the membrane was blocked with (tris-buffered saline) TBS buffer (5% bovine serum albumin (BSA)) for 1 hr at room temperature. The membrane was exposed to the primary antibodies overnight in cold room in TBS buffer (1% BSA). The membrane was then washed with TBS-Tween for 3×10 min at R/T, incubated with secondary antibodies in TBS buffer (1% BSA) for 1 hr at RT. The membrane was washed with TBS-Tween for 3×10 min at R/T and the imaging was acquired with Li—COR imaging system.

[5] = system: FaDu (human head and neck cancer cells); assay: In vivo tumor growth inhibition, FaDu xenograft; design: species or system BALB/c nude mice
Description: FaDu (human head and neck cancer cells): Female 6-8 weeks old BALB/c nude mice were inoculated subcutaneously on the right flank with FaDu tumor cells (5×10^6) in 0.1 ml of EMEM medium without serum for tumor development. The treatments were started when the mean tumor size reached approximately 194 mm^3 at Day 21 post inoculation and continued until end of study by twice daily oral gavage dosing of HC-7366 at listed doses (vehicle, 0.3 mg/kg HC-7366, 1 mg/kg HC-7366, 3 mg/kg HC-7366, 10 mg/kg HC-7366, or 30 mg/kg HC-7366, FIG. 11-13).
as §1, §2

MOLM-16 cells = assay: Seahorse XF Mito stress test (OCR) and Glycolysis Stress Test (ECAR); format: cell-based, human; conditions: 0.001, 0.1 or 10 μM, 16 hrs; strongest effect at 0.1 μM
Description: MOLM-16 cells were treated with 0.001, 0.1 or 10 μM HC-7366 for 16 hrs and the Seahorse XF Glycolysis Stress Test (ECAR; extracellular acidification rate) and Seahorse XF Mito stress test (OCR; oxygen consumption rate) (Agilent technologies, CA, USA) were performed.

Structure (SMILES): CNC(=O)c1ncn2cc(-c3c(F)ccc(NS(=O)(=O)c4cc(Cl)cnc4OC)c3F)ncc12 [HC-7366, 6-(3-((5-chloro-2-methoxypyridine)-3-sulfonamido)-2,6-difluorophenyl)-N-methylimidazo[1,5-a]pyrazine-1-carboxamide]
- myeloid restricted precursor (CD34+CD33+) and mature myeloid cells (CD34−CD33+) [1]: significantly decreased
- effect on tumor growth [2]: tumor stasis
- tumor growth inhibition [3]: 61-65%
- GCN2 pathway, HC-7366 by itself ([4]; 0 to 10 μM): activation of GCN2 pathway
- halofuginone induced p-GCN2 and ATF4 ([4]; 100 nM Halofuginone): inhibited
- tumor regression ([5]; 1 mg/kg twice daily oral): 33%
- TGI ([5]; all doses): significant TGI
- OCR (oxygen consumption rate) (MOLM-16 cells): significantly reduced
- glycolysis (ECAR) (MOLM-16 cells): significantly reduced

Source: patent US20250339426A1, “GCN2 MODULATOR FOR TREATING CANCER” (HIBERCELL, INC., priority 2022, published 2025)
